Reference: PMC12388300, “The Chelating Abilities of Tertiary Amines with N-O-Donors Towards Cu(II) Ions and the Catalytic Properties of the Resulting Complexes” (Molecules, 2025)
Like-named read-outs stand apart in the source and are kept apart here. Marks after values point to notes of the source that are not given here. Where no end group is shown, it is not given here.

Columns and labels:
[1] = [Catalyst] = 100 μM, [H2O2] = 30 mM, MOPS buffer (50 mM, pH 7.5); cited from earlier work
[2] = Potentiometric titration: stability constants and speciation of in situ-formed Cu(II) complexes; format: physicochemical; settings: for logβi of [Cu(HLx)H]^3+ / logβi of [Cu(HLx)]^2+ / logβi of [Cu(Lx)(OH)2]^− / logβi of [Cu(Lx)(OH)] / logβi of [Cu(Lx)]^+: overall stability constant, in situ-formed complex, I = 0.1 M, 25 °C; for pH of maximum concentration of [Cu(HLx)H]^3+: speciation curves, ligand/copper(II) 1:1; for pKi of [Cu(Lx)(OH)2]^− / pKi of [Cu(Lx)(OH)] / pKi of [Cu(Lx)]^+ / pKi of [Cu(HLx)]^2+: stepwise stability constant; for pKi of [Cu(HLx)]^2+: [Cu(HLx)H]^3+ ⇄ [Cu(HLx)]^2+ + H^+
Experimental: Based on the potentiometric studies, the overall and stepwise stability constants of formed complexes were obtained and collected in Table 2; the speciation curves of in situ-formed complexes are presented in Figure 2.
(§1) Potentiometric measurements were performed using a Metrohm pH-meter system equipped with a semi-micro combination electrode, at 25 °C. The system was calibrated based on hydrogen ion concentration using HCl. Ligands were prepared in a 5% (v/v) DMSO solution with water containing HCl/KCl with a constant ionic strength of I = 0.1 M to achieve a final concentration of 1 mM and 0.6 mM of HL1 and HL5, respectively. Titrations were conducted by incrementally adding 0.1 M KOH using a microsyringe at 25°C, spanning a pH interval from 2.5 to 11.5, under an argon atmosphere. The stability constants and complex stoichiometries were determined from the titration data using the SUPERQUAD and HYPERQUAD programs.

[3] = Potentiometric titration: protonation constants of the ligands; format: physicochemical; settings: I = 0.1 M, 25 °C; for logβi, Lx^− + 2H^+ ⇌ [(HLx)H]^+ / logβi, Lx^− + 3H^+ ⇌ [(HLx)H2]^2+ / logβi, Lx^− + 4H^+ ⇌ [(HLx)H3]^3+ / logβi, Lx^− + H^+ ⇌ HLx: overall protonation constant, 5% v/v DMSO/H2O, HCl/KCl; for logKi, Lx^− + H^+ ⇌ HLx: stepwise protonation constant (phenolic group); for logKi, HLx + H^+ ⇌ [(HLx)H]^+ / logKi, [(HLx)H2]^2+ + H^+ ⇌ [(HLx)H3]^3+ / logKi, [(HLx)H]^+ + H^+ ⇌ [(HLx)H2]^2+: stepwise protonation constant
Experimental: Initially, potentiometric measurements were performed to investigate the binding abilities of the ligands in an aqueous environment at different pH levels and to construct the corresponding speciation curves (Figure 1). The analyses were performed in HCl/KCl mixtures, with KCl used to maintain a constant ionic strength of 0.1 mol·dm^−3. The first step of the potentiometric studies was the assessment of the acid-base properties of both ligands. The overall and stepwise protonation constants are collected in Table 1.
as §1

[4] = cited from earlier work; for IC50: CytC assay, read-out: IC50 (SOD activity)
[5] = CAT-like activity: O2 pressure from hydrogen peroxide dismutation; format: biochemical; parameters: Rmax: unit not given here; settings: [catalyst] = 200 μM, [H2O2] = 20–30 mM in BBS 50 mM, pH = 7.8
Experimental: The studied catalase-like activity of the complexes was evaluated by measuring the pressure resulting from the oxygen produced during the dismutation of the hydrogen peroxide. For this analysis, a borate-based buffer system (BBS 50 mM, pH 7.8) was utilized to avoid the competitive binding of phosphate anions.
Catalytic measurement assays were conducted using a Varian Cary 100 spectrophotometer with a 3 mL quartz cuvette (1 cm path length) for evaluating SOD-like activity. For the assessment of peroxidase-mimicking activity, a Varian Cary 50 instrument and identical cuvettes were utilized. To monitor the CAT-like activity, a 25 mL vial, equipped with a septum for solution injection, was used as a reactor and connected to a pressure transducer. […]
To monitor the CAT-like activity, a 25 mL vial was used as a reactor, connected to a pressure transducer and
a septum for the injection.

[6] = UV–Vis monitoring of complex stability during H2O2 dismutation; format: physicochemical; settings: during H2O2 dismutation, BBS 50 mM pH 7.8
Source text: The reaction progression was monitored by UV–Vis to gather insights into the stability of the complexes during H2O2 dismutation (Figures S45–S48 in Supplementary Materials). Analyzing the spectra recorded for the systems derived from HL1 and HL5, it is possible to observe changes in the absorption bands. In the case of the mononuclear species containing HL1, the alteration in the absorption band takes place over a comparatively extended period, in agreement with the occurrence of the delay period previously noted. The intensity associated with the π→π * electronic transition progressively diminishes, coinciding with a rise in molecular oxygen generation. Such a trend implies structural reconfiguration within the coordination environment of the complex, which appears necessary to initiate the catalytic event. On the other hand, the characteristic absorption feature vanishes after 4 h as a result of the formation of radical species. The UV–Vis profile of the complex Cu(HL5)(ClO4)2 (Figure S46) undergoes a faster modification.
Figure S46: UV-Vis spectra of Cu(HL5)(ClO4)2 at time 0 (red) and after 7 h (light red). The colours variation represents an increment of 5 min from t=0 to t=15 min, of 15 min from t=15 to t= 45 min and 45 min from t= 45 to t=360 min.
Conditions: [Cu(HL5)(ClO4)2]= 200 uM, [H2O2]=10mM in BBS 50mM pH=7.8. Zoom: temporal trends compared to O2 (red) and Abs (light red) on the maximum absorption at 294 nm.
Figure S47: UV-Vis spectra of Cu2(L1)2(ClO4)2 at time 0 (blue) and after 24 hours (light blue). Every change of colors represents a temporal increase of 90 minutes. Conditions: [Cu2(L1)2(ClO4)2] = 200 µM, [H2O2] = 10 mM in BBS 50 mM, pH = 7.8. Zoom: temporal trends compared to O2 (blue) and Abs (light blue) on the maximum absorption at 288 nm.
Figure S48: UV-Vis spectra of Cu2(L5)2(ClO4)2 at time 0 (dark green) and after 24 hours (light green). Every change of colours represents a temporal increase of 90 minutes. Conditions: [Cu2(L5)2(ClO4)2] = 200 µM, [H2O2] = 10 mM in BBS 50 mM, pH = 7.8. […]

[7] = SOD activity, indirect cytochrome C (CytC) assay, xanthine/xanthine oxidase; format: biochemical; settings: [CytC] = 10 μM, pH = 7.8
Experimental: To reduce uncertainty about the actual active species involved in the reaction, the catalytic investigations were made with the isolated species. The ability to catalyze superoxide dismutation was assessed using the indirect cytochrome C-based assay originally introduced by McCord and Fridovich. In this kind of test, the presence of a catalyst with SOD activity, acting as a scavenger for O2^•− and generated via a xanthine/xanthine oxidase system, prevents the electron transfer to cytochrome C (Cyt C) to form […].
Catalytic measurement assays were conducted using a Varian Cary 100 spectrophotometer with a 3 mL quartz cuvette (1 cm path length) for evaluating SOD-like activity. For the assessment of peroxidase-mimicking activity, a Varian Cary 50 instrument and identical cuvettes were utilized. To monitor the CAT-like activity, a 25 mL vial, equipped with a septum for solution injection, was used as a reactor and connected to a pressure transducer.

[8] = Cyclic voltammetry of the Cu(II)/Cu(I) couple; format: physicochemical
Experimental: To assess this behavior, the corresponding redox potentials were measured by cyclic voltammetry (CV), offering key insights into the electron-transfer properties of the complexes. The metal ion redox potential should ideally lie between the potential for oxidation (−0.16 V vs. NHE) (Equation (1)) and reduction (0.89 V vs. NHE) of superoxide radicals (Equation (2)).(1) O2∙−→O2+e^− (2) O2∙−+e^−+H^+→H2O2
The key electrochemical parameters extracted from the cyclic voltammograms are summarized in Table 3, highlighting a similar redox behavior of the complexes with both ligands. However, the nature of the anion appears to influence the properties of the mononuclear species formed in situ, compared with the isolated complexes.
Cyclic voltammetry experiments were carried out using a BAS Cell C3 EC-epsilon potentiostat equipped with a conventional three-electrode system consisting of a glassy carbon working electrode (3 mm diameter, geometric surface 7 mm^2), a platinum wire counter electrode (CE), and a silver/silver chloride reference electrode (Ag/AgCl, 3 M KCl). Voltammograms were recorded in phosphate-buffered saline (PBS; 10 mM, 150 mM NaCl, pH 7.8) containing 0.25 mM of the complex. The measurements were performed within a potential window from −600 mV to +400 mV, employing various scan rates (50 mV/s, 100 mV/s, 200 mV/s, 400 mV/s, and 800 mV/s).

[9] = vs NHE, PBS 10 mM, 150 mM NaCl, pH 7.8, 0.25 mM complex

Row | Compound | logβi of [Cu(HLx)H]^3+ [2] | logβi of [Cu(HLx)]^2+ [2] | logβi of [Cu(Lx)(OH)2]^− [2] | logβi of [Cu(Lx)(OH)] [2] | logβi of [Cu(Lx)]^+ [2] | pH of maximum concentration of [Cu(HLx)H]^3+ [2] | pKi of [Cu(Lx)(OH)2]^− [2] | pKi of [Cu(Lx)(OH)] [2] | pKi of [Cu(Lx)]^+ [2] | pKi of [Cu(HLx)]^2+ [2] | logβi, Lx^− + 2H^+ ⇌ [(HLx)H]^+ [3] | logβi, Lx^− + 3H^+ ⇌ [(HLx)H2]^2+ [3] | logβi, Lx^− + 4H^+ ⇌ [(HLx)H3]^3+ [3] | logβi, Lx^− + H^+ ⇌ HLx [3] | logKi, Lx^− + H^+ ⇌ HLx [3] | logKi, HLx + H^+ ⇌ [(HLx)H]^+ [3] | logKi, [(HLx)H2]^2+ + H^+ ⇌ [(HLx)H3]^3+ [3] | logKi, [(HLx)H]^+ + H^+ ⇌ [(HLx)H2]^2+ [3] | IC50 [4] | Log (kcat) [4] | further results
1 | (CATm1)Cu2: di-copper complex of CATm1 = peptide sequence PHYKHRLH (also: di-copper complex) | – | – | – | – | – | – | – | – | – | – | – | – | – | – | – | – | – | – | – | – | O2 generated [1]: 0.3 mmol/L; Rmax [1]: 273 µM/min; Time [1]: 3 min
2 | COc1cccc(CN(Cc2ccccn2)Cc2ccccn2)c1O [HL5, 2-{[Bis(pyridin-2-ylmethyl)amino]methyl}-6-methoxyphenol] | 23.43 ± 0.08 | 18.04 ± 0.10 | −8.56 ± 0.11 | 1.77 ± 0.11 | 11.51 ± 0.10 | 3.5 | 10.33 | 9.74 | 6.53 | 5.39 | 15.77 ± 0.02 | 20.71 ± 0.02 | 24.43 ± 0.02 | 9.52 ± 0.01 | 9.52 | 6.25 | 3.72 | 4.94 | – | – | –
3 | Oc1ccccc1CN(Cc1ccccn1)Cc1ccccn1 [HL1, N-(2-hydroxylbenzyl)-N,N-bis(2-pyridylmethyl)amine] | 22.67 ± 0.06 | 16.84 ± 0.08 | −10.42 ± 0.09 | 0.03 ± 0.09 | 9.73 ± 0.08 | 4.5 | 10.45 | 9.70 | 7.11 | 5.83 | 16.29 ± 0.02 | 21.53 ± 0.02 | 25.24 ± 0.02 | 9.99 ± 0.01 | 9.99 | 6.30 | 3.71 | 5.24 | – | – | metal ion binding efficiency in the competition diagram ([2]; HL1:Cu(II):HL5 molar ratio 1:1:1, pH 3 to 11): significantly less efficient in metal ion binding
4 | O=S(=O)([O-])[O-].[Cu+2] [CuSO4] | – | – | – | – | – | – | – | – | – | – | – | – | – | – | – | – | – | – | 72.2 µM | ~6 | –
5 | Oc1ccccc1CN(Cc1ccccn1)Cc1ccccn1.[Cu+2].[O-][Cl+3]([O-])([O-])[O-].[O-][Cl+3]([O-])([O-])[O-] [Cu(HL1)(ClO4)2] | – | – | – | – | – | – | – | – | – | – | – | – | – | – | – | – | – | – | – | – | Time (to maximum O2 production) [5]: 950 min; Induction Time ([5]; triplicate, ±10% error): 250 min; O2 generated ([5]; triplicate, ±10% error): 7.6 mmol/L; Rmax ([5]; triplicate, ±10% error): 0.25; time after which the characteristic absorption feature vanishes [6]: 4 h; IC50 ([7]; CytC assay, [xanthine] = 40 μM, [xanthine oxidase] = 0.0053 U/mL, phosphate buffer 50 mM): 1410 nM; Log (kcat) ([7]; kcat(O2•−)=kCytC·[CytC]/IC50, kCytC=2.6×10^5 M^−1s^−1): 6.27 ^h; ΔE ([8]; Epc − Epa, PBS pH 7.8): −0.085 V; │ia/ic│ ([8]; peak current ratio, PBS pH 7.8): 0.61; E1/2 ([8]; vs NHE, E1/2=(Epc+Epa)/2, PBS pH 7.8): −0.135 V; Epa [8, 9]: −0.092 V; Epc [8, 9]: −0.177 V
6 | O=C([O-])CCN(Cc1ccccn1)Cc1ccccn1.[Cu+2] [[Cu(BPMPA)]^+] | – | – | – | – | – | – | – | – | – | – | – | – | – | – | – | – | – | – | 1.04 µM | 7.09 | –
